Source: patent publication US11845727B2, “Aldehyde and ketone derivatives of psilocybin and methods of using” (Enveric B[…] Inc., priority 2020, dated 2023)

Legend:
[1] = target: T1, 5-HT1A receptor (Homo sapiens, UniProt P08908); experiment: cAMP-Glo assay with fixed forskolin in +5-HT1A cells (CHO-K1/5-HT1A/Gα15); type: cell-based; conditions: fixed (4 μM) forskolin; for luminescence as dosages of ligand decrease: +5HT1A cell culture, reduced luminescence = increased cAMP; for 5-HT1A receptor modulation (conclusion from cAMP/luminescence trend) / % cAMP levels as dosages of compound decrease: +5HT1A cell cultures
T1 construct: host or cells: CHO-K1 (co-expressing Gα15)
T1 sequence (P08908 1-422): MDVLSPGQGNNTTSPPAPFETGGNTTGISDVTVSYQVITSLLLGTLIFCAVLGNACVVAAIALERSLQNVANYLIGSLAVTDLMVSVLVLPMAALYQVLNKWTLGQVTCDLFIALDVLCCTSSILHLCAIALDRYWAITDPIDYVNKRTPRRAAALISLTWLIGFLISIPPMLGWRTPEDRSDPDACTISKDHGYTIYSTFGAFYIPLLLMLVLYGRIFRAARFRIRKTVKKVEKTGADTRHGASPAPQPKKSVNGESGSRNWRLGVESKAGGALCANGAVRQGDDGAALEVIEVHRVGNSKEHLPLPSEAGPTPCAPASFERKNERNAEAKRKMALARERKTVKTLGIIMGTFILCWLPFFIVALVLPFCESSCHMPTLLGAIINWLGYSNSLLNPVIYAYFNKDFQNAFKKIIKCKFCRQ
From the text: (§1) CHO-K1/Gα15 (GenScript, M00257) (−5-HT1A) and CHO-K1/5-HT1A/Gα15 (GenScript, M00330) (+5-HT1A) cells lines were used. Briefly, CHO-K1/Gα15 is a control cell line that constitutively expresses Gα15 which is a promiscuous Gq protein. This control cell line lacks any transgene encoding 5-HT1A receptors, but still responds to forskolin; thus, cAMP response to forskolin should be the same regardless of whether or not 5-HT1A agonists are present. Conversely, CHO-K1/5-HT1A/Gα15 cells stably express 5-HT1A receptor in the CHO-K1 host background. […] In +5-HT1A cells, Gα15 may be recruited in place of Gαi/o, which could theoretically dampen cAMP response (Rojas and Fiedler 2016, Front Cell Neurosci 10: 272). […] In contrast, tryptophan is not known to activate, or modulate in any way, 5-HT1A receptors, and was thus used as a negative control. Cells were maintained in complete growth media as recommended by supplier (GenScript) which is constituted as follows: Ham's F12 Nutrient mix (HAM's F12, GIBCO #11765-047) with 10% fetal bovine serum (FBS) (Thermo Scientific #12483020), 200 μg/ml zeocin (Thermo Scientific #R25005) and/or 100 μg/ml hygromycin (Thermo Scientific #10687010). The cells were cultured in a humidified incubator with 37° C. and 5% CO2. Cells maintenance was carried out as recommended by the cell supplier. Briefly, vials with cells were removed from the liquid nitrogen and thawed quickly in 37° C. water bath. Just before the cells were completely thawed the vial's outside was decontaminated by 70% ethanol spray. The cell suspension was then retrieved from the vial and added to warm (37° C.) complete growth media, and centrifuged at 1,000 rpm for 5 minutes. The supernatant was discarded, and the cell pellet was then resuspended in another 10 ml of complete growth media, and added to the 10 cm cell culture dish (Greiner Bio-One #664160). The media was changed every third day until the cells were about 90% confluent. The ˜90% confluent cells were then split 10:1 for maintenance or used for experiment.
As 5-HT1A activation inhibits cAMP formation, the ability of test molecules to modulate the 5-HT1A receptor response was measured via changes in the levels of cAMP produced due to application of 4 μM forskolin. The change in intracellular cAMP levels due to the treatment of novel molecules was measured using cAMP-Glo Assay kit (Promega # V1501). Briefly, +5-HT1A cells were seeded on 1-6 columns and base −5-HT1A cells were seeded on columns 7-12 of the white walled clear bottom 96-well plate (Corning, #3903). Both cells were seeded at the density of 30,000 cells/well in 100 μl complete growth media and cultured 24 hrs in humidified incubator at 37° C. and 5% CO2. On the experiment day, the media of cells was replaced with serum/antibiotic free culture media. Then the cells were treated for 20 minutes with test molecules dissolved in induction medium (serum/antibiotic free culture media containing 4 μM forskolin, 500 μM IBMX (isobutyl-1-methylxanthine, Sigma-Aldrich, Cat. #17018) and 100 μM (RO 20-1724, Sigma-Aldrich, Cat. #68279)). Forskolin induced cAMP formation whereas IBMX and RO 20-1724 inhibited the degradation of cAMP. PKA was added to the lysate, mixed, and subsequently the substrate of the PKA was added. PKA was activated by cAMP, and the amount of ATP consumed due to PKA phosphorylation directly corresponded to cAMP levels in the lysate. Reduced ATP caused reduced conversion of luciferin to oxyluciferin, conferring diminished luminescence as the result of 5-HT1A activation. Conversely, enhanced luminescence was expected in cases where 5-HT1A receptor modulation—imparted by a test molecule—caused downstream increases in ATP, thus imparting enhanced conversion of luciferin to oxyluciferin.

[2] = test system: CHO-K1/Gα15 (−5-HT1A) cells; experiment: cAMP-Glo assay with fixed forskolin in −5-HT1A control cells (CHO-K1/Gα15); type: cell-based; conditions: fixed (4 μM) forskolin
From the text: as §1
As 5-HT1A activation inhibits cAMP formation, the ability of test molecules to modulate the 5-HT1A receptor response was measured via changes in the levels of cAMP produced due to application of 4 μM forskolin. The change in intracellular cAMP levels due to the treatment of novel molecules was measured using cAMP-Glo Assay kit (Promega # V1501). […] Reduced ATP caused reduced conversion of luciferin to oxyluciferin, conferring diminished luminescence as the result of 5-HT1A activation. Conversely, enhanced luminescence was expected in cases where 5-HT1A receptor modulation—imparted by a test molecule—caused downstream increases in ATP, thus imparting enhanced conversion of luciferin to oxyluciferin.

[3] = target: T2, 5-HT2A receptor (Homo sapiens, UniProt P28223); experiment: [3H]ketanserin competition binding assay (SPA) at the 5-HT2A receptor; conditions: fixed (1 nM) [3H]ketanserin, membranes containing 5-HT2A
T2 construct: purchased PerkinElmer ES-313-M400UA
From the text: Evaluation of drug binding is an essential step to characterization of all drug-target interactions (Fang 2012, Exp Opin Drug Discov 7:969). The binding affinity of a drug to a target is traditionally viewed as an acceptable surrogate of its in vivo efficacy (Núñez et al., 2012, Drug Disc Today 17: 10). Competition assays, also called displacement or modulation binding assays, are a common approach to measure activity of a ligand at a target receptor (Flanagan 2016, Methods Cell Biol 132: 191). In these assays, standard radioligands acting either as agonists or antagonists are ascribed to specific receptors. […] After incubation, the samples were read on a MicroBeta 2 Microplate Counter (Perkin Elmer). […] Equilibrium binding constants for ketanserin (Kd) were determined from saturation binding curves using the ‘one-site saturation binding analysis’ method of GraphPad PRISM software (Version 9.2.0). […] Ki values were calculated from the competition displacement data using the competitive binding analysis from GraphPad PRISM software. […] Specific binding in counts per minute (cpm) was calculated by subtracting non-specific binding from total binding. Specific binding (pmol/mg) was calculated from pmol of [^3H]ketanserin bound per mg of protein in the assay. The Kd was calculated by fitting the data with the one-site binding model of PRISM software (version 9.2.0).

T2 sequence (P28223 whole entry): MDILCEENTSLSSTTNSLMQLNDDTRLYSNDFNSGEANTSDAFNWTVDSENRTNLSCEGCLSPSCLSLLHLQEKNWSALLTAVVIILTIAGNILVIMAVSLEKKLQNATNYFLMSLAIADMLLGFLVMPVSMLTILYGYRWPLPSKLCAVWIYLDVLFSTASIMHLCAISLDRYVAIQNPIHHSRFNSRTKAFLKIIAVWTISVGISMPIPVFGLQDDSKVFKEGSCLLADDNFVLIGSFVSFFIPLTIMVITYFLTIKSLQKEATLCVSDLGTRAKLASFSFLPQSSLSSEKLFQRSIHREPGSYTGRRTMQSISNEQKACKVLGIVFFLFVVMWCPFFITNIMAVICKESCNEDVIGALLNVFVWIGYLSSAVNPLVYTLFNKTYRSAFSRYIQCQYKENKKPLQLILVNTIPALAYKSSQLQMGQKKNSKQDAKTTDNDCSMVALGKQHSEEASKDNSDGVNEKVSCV

SMILES | luminescence as dosages of ligand decrease [1] | 5-HT1A receptor modulation (conclusion from cAMP/luminescence trend) [1] | trend of % cAMP levels with decreasing compound in −5HT1A cell cultures [2] | % cAMP levels as dosages of compound decrease [1] | competition binding curve at the 5-HT2A receptor [3]
CN(C)CCc1c[nH]c2ccccc12 [DMT] | reduced luminescence | 5-HT1A activity | – | – | –
CCN(CC)CCc1c[nH]c2c(C=O)ccc(O)c12 [compound (VIII), N,N-diethyl-7-formyl psilocybin derivative] | – | 5-HT1A modulation activity | not observed | increased % cAMP levels | –
COc1ccc(C=O)c2[nH]cc(CCN)c12 [compound (X), 4-O-methyl-7-formyl psilocybin derivative] | – | modulate 5-HT1A response | not observed | decreased % cAMP levels | –
CCCCN(CCCC)CCc1c(C=O)[nH]c2cccc(OC)c12 [compound (XII)] | – | 5-HT1A modulation activity | not observed | decreased % cAMP levels | –
CN(C)CCc1c[nH]c2cccc(O)c12 [psilocin] | – | – | – | – | binding
NCCc1c[nH]c2ccc(O)cc12 [serotonin] | – | 5-HT1A binding activity | not observed | increased % cAMP levels | –
N[C@@H](Cc1c[nH]c2ccccc12)C(=O)O [tryptophan] | no trend in luminescence | lack of 5-HT1A modulation | – | – | no binding
